Data as given in US20100009970A1, “COMPOSITIONS AND METHODS FOR TREATMENT OF VIRAL DISEASES” (Combinatorx (Singapore) Pte. Ltd., priority 2008, published 2010).
Structures can show the parent of a compound that is named as a salt. Where two headings read alike, the source gives them in different places.

What was measured:
[1] = tested on: Huh7 cells expressing a subgenomic RNA replicon of Con1 (genotype 1b) sequence origin
in vitro = settings: human
[2] = tested on: Huh7 cells expressing a subgenomic RNA replicon of Con1 (genotype 1b) sequence origin; test: microbe, parasite or virus in culture; settings: Hepatitis C virus
[3] = Huh-7, read-out: IC50 (uM) [SG]
[4] = Huh-7, read-out: Max Effect@CC30 (inhibition)

Compound	IC50 [1]	CC50 (in vitro; CC50 (uM) [SG])	IC50 [2, 3]	also measured
CCN(CC)c1ccc(C(=C2C=CC(=[N+](CC)CC)C=C2)c2cc(S(=O)(=O)O)ccc2S(=O)(=O)[O-])cc1 [Isosulfan Blue, reference compound]	24.9 µM			
N-Tosyl-L-phenylalanine chloromethyl ketone [reference compound]	16.7 µM			
Nc1nc(-c2nn(Cc3ccccc3F)c3ncccc23)ncc1C1CC1 [Bay 41-2272, reference compound]	0.754 µM			
CCCCC(CC)COC(=O)c1ccc(N(C)C)cc1 (centres unmarked) [Padimate O]	5.44 µM			
COc1ccc(C[C@H]2NC[C@H](O)[C@H]2OC(C)=O)cc1 [Anisomycin, reference compound]	0.608 µM			
CCCCC1C(=O)N(c2ccccc2)N(c2ccc(O)cc2)C1=O (centres unmarked) [Oxyphenbutazone (e.g., hydrate), oxyphenbutazone, reference compound]	4.17 µM			
C/C1=C2/[N-][C@H]([C@H](CC(N)=O)[C@@]2(C)CCC(=O)NC[C@H](C)OP(=O)([O-])O[C@H]2[C@@H](O)[C@@H](n3cnc4cc(C)c(C)cc43)O[C@@H]2CO)[C@]2(C)N=C(/C(C)=C3N=C(/C=C4N=C1[C@@H](CCC(N)=O)C\4(C)C)[C@@H](CCC(N)=O)[C@]\3(C)CC(N)=O)[C@@H](CCC(N)=O)[C@]2(C)CC(N)=O.[CH3-].[Co+3] [Mecobalamin, mecobalamin, reference compound]	0.179 µM			
C[C@]12CC[C@H]3[C@@H](CCC4=CC(=O)CC[C@@]43C)[C@@H]1CC[C@@H]2C(=O)CO [Desoxycorticosterone (e.g., acetate), deoxycorticosterone, reference compound]	14.7 µM			
C/C1=C2/[N-][C@H]([C@H](CC(N)=O)[C@@]2(C)CCC(=O)NC[C@@H](C)OP(=O)([O-])O[C@H]2[C@@H](O)[C@@H](n3cnc4cc(C)c(C)cc43)O[C@@H]2CO)[C@]2(C)N=C(/C(C)=C3N=C(/C=C4N=C1[C@@H](CCC(N)=O)C\4(C)C)[C@@H](CCC(N)=O)[C@]\3(C)CC(N)=O)[C@@H](CCC(N)=O)[C@]2(C)CC(N)=O.[Co+3].[OH-] [Hydroxocobalamin, hydroxocobalamin, reference compound]	1.33 µM			
N#CC(C#N)=Cc1ccc(O)c(O)c1 [Tyrphostin 23, tyrphostin 23, reference compound]	14.6 µM			
Cc1cc(N)c2ccccc2c1O [Vitamin K5]	19.6 µM			
O=c1cc(N2CCOCC2)oc2c1ccc1ccccc12 [DNA-PK inhibitor II, reference compound]	6.52 µM			
Nc1ccccc1NC(=O)CCCCCCC(=O)Nc1ccccc1 [CAY10433, reference compound]	7.88 µM			
CC(=O)O[C@@]12CO[C@@H]1C[C@H](O)[C@@]1(C)C(=O)[C@H](O)C3=C(C)[C@@H](O)C[C@@](O)([C@@H](OC(=O)c4ccccc4)[C@H]21)C3(C)C [10-Deacetylbaccatine Iii, reference compound]	10.3 µM			
CC(C)(C)c1cc(O)c(C(C)(C)C)cc1O [BHQ, reference compound]	23.3 µM			
CCC(Cc1c(I)cc(I)c(O)c1I)C(=O)O (centres unmarked) [Iophenoxic acid, reference compound]	10.6 µM			
C[C@@H]1C[C@H]2[C@@H]3CCC4=CC(=O)C=C[C@]4(C)[C@@]3(Cl)[C@@H](O)C[C@]2(C)[C@@]1(O)C(=O)CCl [Mometasone (e.g., furoate), mometasone, reference compound]	11.3 µM			
OCCN1CCN(CC/C=C2/c3ccccc3Sc3ccc(C(F)(F)F)cc32)CC1 [Flupentixol (e.g., dihydrochloride), Flupentixol, reference compound]	3.6 µM			
CC(=O)ON=C1C(=O)N(Cc2cc(Cl)ccc2Cl)c2ccc(Cl)cc21 [UCH-L1 inhibitor, reference compound]	17.2 µM			
O=C1Nc2ccc3ncsc3c2/C1=C/c1cnc[nH]1 [PKR inhibitor, reference compound]	1.75 µM			
N#CC(C#N)=Cc1cc(O)c(O)c(O)c1 [Tyrphostin 25, tyrphostin 25, reference compound]	16 µM			

Compound	IC50 [1]	CC50 (in vitro; CC50 (uM) [SG])	IC50 [2, 3]	also measured
N#C/C(=C\c1ccc(O)c(O)c1)C(N)=O [Tyrphostin 46, tyrphostin A46, reference compound]	21.2 µM			
N#C/C(=C/c1ccc(O)c(O)c1)C(=O)NCc1ccccc1 [AG-490, tyrphostin AG-490, reference compound]	5.03 µM			
O=[N+]([O-])c1ccc2nc(N3CCNCC3)ccc2c1 [6-Nitroquipazine, reference compound]	16.4 µM			
COc1ccc(CCN(C)CCC[C@](C#N)(c2ccc(OC)c(OC)c2)C(C)C)cc1OC [R(+)-Verapamil (e.g., hydrochloride), R(+)-Verapamil, reference compound]	15.7 µM			
CSc1ccc(Oc2ccc(S(N)(=O)=O)cc2CN(C)C[C@@H](C)O)cc1C [Compound 70, (R)-3-(((2-hydroxypropyl)(methyl)amino)methyl)-4-(3-methyl-4-(methylthio)phenoxy)benzenesulfonamide]		> 50 µM	7.01 µM	IC90 ([2]; Huh-7): 23.9 µM
CNC(=O)c1ccc2c(c1)[C@@H](NC)CC[C@H]2c1ccc(Cl)c(Cl)c1 [Sertraline A-Ring Methyl Carboxamide, (5S,8S)-5-(3,4-dichlorophenyl)-N-methyl-8-(methylamino)-5,6,7,8-tetrahydronaphthalene-2-carboxamide]		11.1 µM	2.82 µM	Emax [2, 4]: 81.2%
CNCc1cc(S(N)(=O)=O)ccc1Oc1ccc(C)c(C)c1 [Compound 84, 4-(3,4-dimethylphenoxy)-3-((methylamino)methyl)benzenesulfonamide]		46.7 µM	28.1 µM	IC90 ([2]; Huh-7): 39.6 µM
CSc1ccc(Oc2ccc(S(N)(=O)=O)cc2CN(C)C)cc1 [Compound 46, 3-((dimethylamino)methyl)-4-(4-(methylthio)phenoxy)benzenesulfonamide]		> 50 µM	26.3 µM	CC50 (in vitro; CC50 (uM)): > 50 µM; IC50 ([2]; Huh-7): 26.3 µM; IC90 ([2]; Huh-7): 60.9 µM; Emax ([2]; Huh-7, read-out: Max Effect @CC30 (inhibition)): 83.2%; Emax [2, 4]: 83.2%
CNCc1ccccc1Oc1ccc(SC)cc1 [Compound 33, N-methyl(2-(4-(methylthio)phenoxy)phenyl)methanamine]		> 50 µM	30.2 µM	Emax [2, 4]: 72.3%
COc1ccc(Oc2ccc(Br)cc2CN(C)C)cc1 [Compound 42, (5-bromo-2-(4-methoxyphenoxy)phenyl)-N,N-dimethylmethanamine]		> 50 µM	30.8 µM	Emax [2, 4]: 51.7%
CN[C@H]1CC[C@@H](c2ccc(Cl)c(Cl)c2)c2ccc(C(=O)Nc3ccccn3)cc21 [Sertraline A-ring Pyridine Carboxamide, (5S,8S)-5-(3,4-dichlorophenyl)-8-(methylamino)-N-(pyridin-2-yl)-5,6,7,8-tetrahydronaphthalene-2-carboxamide]		7.05 µM	4.43 µM	Emax [2, 4]: 61.3%
CN(C)[C@H]1CC[C@@H](c2ccc(Cl)c(Cl)c2)c2ccc(C(=O)NC3CCC3)cc21 [(5S,8S)—N-cyclobutyl-5-(3,4-dichlorophenyl)-8-(dimethylamino)-5,6,7,8-tetrahydronaphthalene-2-carboxamide]		13.4 µM	5.78 µM	
CSc1ccc(Oc2ccc(S(N)(=O)=O)cc2CN2CCC[C@@H]2CO)cc1C [Compound 102, (R)-3-((2-(hydroxymethyl)pyrrolidin-1-yl)methyl)-4-(3-methyl-4-(methylthio)phenoxy)benzenesulfonamide]		> 50 µM	6.76 µM	IC90 ([2]; Huh-7): 17.6 µM
CSc1ccc(Oc2ccc(S(N)(=O)=O)cc2CN2CCN(c3ccccc3F)CC2)cc1C [Compound 87, 3-((4-(2-fluorophenyl)piperazin-1-yl)methyl)-4-(3-methyl-4-(methylthio)phenoxy)benzenesulfonamide]		30.2 µM	23.5 µM	
CN[C@H]1CC[C@@H](c2ccc(Cl)c(Cl)c2)c2ccc(C(=O)NCC(=O)OC)cc21 [methyl 2-((1S,4S)-1-(3,4-dichlorophenyl)-4-(methylamino)-1,2,3,4-tetrahydronaphthalene-6-carboxamido)acetate]		22.9 µM	6.69 µM	
CSc1ccc(Oc2ccc(S(N)(=O)=O)cc2CN2CCN(c3ccc(Cl)cc3)CC2)cc1C [Compound 92, 3-((4-(4-chlorophenyl)piperazin-1-yl)methyl)-4-(3-methyl-4-(methylthio)phenoxy)benzenesulfonamide]		44.4 µM	30 µM	
CN[C@H]1CC[C@@H](c2ccc(Cl)c(Cl)c2)c2ccc(C(N)=S)cc21 [Sertraline A-Ring Thiocarboxamide, (5S,8S)-5-(3,4-dichlorophenyl)-8-(methylamino)-5,6,7,8-tetrahydronaphthalene-2-carbothioamide]		13.2 µM	7.19 µM	
CSc1ccc(Oc2ccc(S(N)(=O)=O)cc2CNCCO)cc1C [Compound 1, 3-((2-hydroxyethylamino)methyl)-4-(3-methyl-4-(methylthio)phenoxy)benzenesulfonamide]		> 50 µM	4.31 µM	IC90 ([2]; Huh-7): 15 µM
CSc1ccc(Oc2ccc(S(N)(=O)=O)cc2CN2CCCN(C)CC2)cc1C [Compound 74, 3-((4-methyl-1,4-diazepan-1-yl)methyl)-4-(3-methyl-4-(methylthio)phenoxy)benzenesulfonamide]		35.9 µM	7.31 µM	IC90 ([2]; Huh-7): 16.1 µM
CN(C(=O)c1ccc2c(c1)[C@@H](N(C)C)CC[C@H]2c1ccc(Cl)c(Cl)c1)C1CC1 [(5S,8S)—N-cyclopropyl-5-(3,4-dichlorophenyl)-8-(dimethylamino)-N-methyl-5,6,7,8-tetrahydronaphthalene-2-carboxamide]		26.3 µM	13 µM	
